Assay results reported in patent publication EP3118202A1, “DIHYDROPYRIDOPYRROLE DERIVATIVES AS TAU-PET-LIGANDS” (AC Immune S.A., priority 2015, dated 2017).

Key:
[1] = system: tau tangles/Aβ plaques on AD brain sections; assay: Direct staining of human Alzheimer's disease brain sections (Assay 1, fluorescence based assay); assay type: binding; design: key to Direct staining of tau tangles/Aβ plaques on AD brain sections at 100 µM: - (No); +++ (strong); ++ (good); + (weak); settings: for Direct staining of tau tangles/Aβ plaques on AD brain sections at 100 µM: 100 µM in 50% ethanol in water, 20 min, room temperature, frozen amygdala sections, Braak stage V-VI; for Direct staining of tau tangles/Aβ plaques on AD brain sections at 100 µM: structure stained: structure (tangles or plaques) that was stained
Experimental: Assay 1 (Fluorescence based assay):
Direct binding of compounds of this invention to human Alzheimer's disease brain sections
Frozen sections with a thickness of […] from the amygdala of donors diagnosed with Braak stage V-VI Alzheimer's Disease (Braak, H.; Braak, E. Acta Neuropathol., 1991, 82, 239-259), were purchased from a commercial provider (Tissue Solutions) and kept at -80°C until use.
Direct staining of human Alzheimer's disease brain sections
Brain sections were encircled with pap pen liquid blocker to reduce the volume of solution for the different incubations. Sections were fixed for 15 min at 4°C with 4% paraformaldehyde and washed three times 5 minutes with PBS at room temperature. Test compounds were incubated on the sections at 100 µM in 50% ethanol in water for 20 min at room temperature in the dark and then washed three times 5 minutes with PBS. To reduce the auto-fluorescence of the tissue, the sections were incubated in a solution of 0.1% Sudan Black (Sigma 199664) in 70% ethanol for 15 min at room temperature in the dark, washed four times for 5 minutes with PBS, and mounted using ProLong Gold Antifade reagent (Invitrogen P36930). Sections were then analyzed on the Nikon Eclipse Ti microscope to detect staining and imaged using Nikon DS-Fi2 camera and NIS-Element AR4.13.1 software.

[2] = biological target: T1, MAO-B human - recombinant (Homo sapiens, UniProt P27338); assay: MAO-B assay (MAO-Glo Assay); assay type: biochemical; settings: MAO substrate 4 µM; 1 hour at room temperature; read-out: MAO B binding
T1 construct: purchased Sigma-Aldrich M7441
T1 sequence (P27338 1-520): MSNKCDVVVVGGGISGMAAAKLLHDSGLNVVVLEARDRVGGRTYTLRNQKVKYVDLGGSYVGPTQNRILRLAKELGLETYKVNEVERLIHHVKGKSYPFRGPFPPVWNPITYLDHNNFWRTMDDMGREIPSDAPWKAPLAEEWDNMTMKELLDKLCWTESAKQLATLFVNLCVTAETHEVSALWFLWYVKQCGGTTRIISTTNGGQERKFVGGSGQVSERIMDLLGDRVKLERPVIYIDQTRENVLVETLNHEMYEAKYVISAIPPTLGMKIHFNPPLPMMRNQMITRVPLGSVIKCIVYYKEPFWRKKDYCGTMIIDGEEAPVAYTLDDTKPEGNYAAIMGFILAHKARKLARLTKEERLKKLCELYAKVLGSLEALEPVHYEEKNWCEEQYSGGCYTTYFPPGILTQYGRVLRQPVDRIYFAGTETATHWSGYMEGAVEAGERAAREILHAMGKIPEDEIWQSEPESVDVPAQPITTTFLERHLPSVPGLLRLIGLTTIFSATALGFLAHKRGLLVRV
Experimental: Compounds were tested for their capacity to modulate MAO-B activity within the MAO-Glo™ Assay (Promega, Cat.# V1402). In each well of a 96-well plate, 12.5 µl of 4X MAO Substrate solution (end-concentration in assay: 4 µM) were mixed with 12.5 µl of a 4X solution of the corresponding test compound (end-concentrations ranged from 10 µM to 1.37 nM). In the absence of a test compound (i.e. to gauge the total MAO-B activity), the corresponding volume of MAO-B Reaction Buffer (100 mM HEPES (pH 7.5), 5% glycerol, 10% dimethyl sulphoxide) was added. To initiate the MAO reaction, 25 µl of 2X MAO-B enzyme solution (MAO-B human - recombinant, Sigma-Aldrich, Cat.# M7441; 1 µg MAO-B enzyme/25 µl MAO-B Reaction Buffer) were added per well and mixed briefly. For negative control reactions, 25µl of MAO-B Reaction Buffer were added. Thereafter the plate was incubated at room temperature for 1 hour, following which, 50 µl of reconstituted Luciferin Detection Reagent were added per well and mixed briefly. The plate was then incubated at room temperature for 20 minutes to generate and stabilize the luminescent signal. The luminescent signal was subsequently measured and recorded on the TopCountNXT™ luminescence counter (PerkinElmer). Data were analyzed and graphs were prepared using the Graphpad Prism 6 software.

[3] = biological target: T2, MAO-A human - recombinant (Homo sapiens, UniProt P21397); assay: Monoamine oxidase A (MAO-A) assay (MAO-Glo Assay); assay type: biochemical; settings: MAO substrate 40 µM; 1 hour at room temperature; read-out: MAO A binding
T2 construct: purchased Sigma-Aldrich M7316
T2 sequence (P21397 1-527): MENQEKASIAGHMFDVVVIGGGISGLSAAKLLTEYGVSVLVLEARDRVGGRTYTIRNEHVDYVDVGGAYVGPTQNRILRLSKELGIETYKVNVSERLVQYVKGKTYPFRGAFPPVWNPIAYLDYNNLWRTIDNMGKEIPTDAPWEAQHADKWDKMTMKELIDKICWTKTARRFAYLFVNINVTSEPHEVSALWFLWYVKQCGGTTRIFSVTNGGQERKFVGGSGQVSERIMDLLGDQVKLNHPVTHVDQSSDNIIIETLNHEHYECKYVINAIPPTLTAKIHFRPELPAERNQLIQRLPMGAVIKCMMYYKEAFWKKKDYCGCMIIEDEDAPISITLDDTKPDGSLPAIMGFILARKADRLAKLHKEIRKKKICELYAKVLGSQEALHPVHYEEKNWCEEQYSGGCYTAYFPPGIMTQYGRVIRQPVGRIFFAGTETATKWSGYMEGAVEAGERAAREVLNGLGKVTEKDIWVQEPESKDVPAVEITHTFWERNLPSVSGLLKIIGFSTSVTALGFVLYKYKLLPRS
Experimental: Monoamine oxidase A (MAO-A) assay
Compounds were tested for their capacity to modulate MAO-A activity within the MAO-Glo™ Assay (Promega, Cat.# V1402). In each well of a 96-well plate, 12.5 µl of 4X MAO Substrate solution (end-concentration in assay: 40 µM) were mixed with 12.5 µl of a 4X solution of the corresponding test compound (end-concentrations ranged from 10 µM to 1.37 nM). In the absence of a test compound (i.e. to gauge the total MAO-A activity), the corresponding volume of MAO Reaction Buffer (100 mM HEPES (pH 7.5), 5% glycerol) was added. To initiate the MAO reaction, 25 µl of 2X MAO-A enzyme solution (MAO-A human - recombinant, Sigma-Aldrich, Cat.# M7316; 1 µg MAO-A enzyme/25 µl MAO Reaction Buffer) were added per well and mixed briefly. For negative control reactions, 25µl of MAO Reaction Buffer were added. Thereafter the plate was incubated at room temperature for 1 hour, following which, 50 µl of reconstituted Luciferin Detection Reagent were added per well and mixed briefly. The plate was then incubated at room temperature for 20 minutes to generate and stabilize the luminescent signal. The luminescent signal was subsequently measured and recorded on the TopCountNXT™ luminescence counter (PerkinElmer). Data were analyzed and graphs were prepared using the Graphpad Prism 6 software.

IC50 [2] | IC50 [3] | SMILES | Direct staining of tau tangles/Aβ plaques on AD brain sections at 100 µM [1] | Direct staining of tau tangles/Aβ plaques on AD brain sections at 100 µM: structure stained [1]
 |  | CCn1c2ccncc2c2ccc(N3CCC(OCCF)CC3)nc21 [Example 1] | - | 
 |  | CN(CCF)C1CCN(c2ccc3c4cnccc4n(C)c3n2)CC1 [Example 3] | - | 
> 1 µM | 0.43 µM | Cn1c2ccncc2c2ccc(N3CCC(OCC(O)CF)CC3)nc21 (stereo not drawn) [Example 5] | ++ | (tangles)
 |  | CCn1c2ccncc2c2ccc(N3CCC(OCC(O)CF)CC3)nc21 (stereo not drawn) [Example 6] | ++ | (tangles)
> 1 µM | 0.79 µM | OC(CF)COC1CCN(c2ccc3c(n2)[nH]c2ccncc23)CC1 (stereo not drawn) [Example 10] |  | 
> 1 µM | 0.94 µM | Cn1c2ccncc2c2ccc(N3CCN(CC(O)CF)CC3)nc21 (stereo not drawn) [Example 12] | + | (tangles)
 |  | Cn1c2ccncc2c2ccc(N3CC4CC(C3)C4OCCF)nc21 (stereo not drawn) [Example 13] | ++ | (tangles)
 |  | Cn1c2ccncc2c2ccc(N3CCC(COCCF)CC3)nc21 [Example 14] | - | 
 |  | Cn1c2ccncc2c2ccc(N3CCOC(CCF)C3)nc21 (stereo not drawn) [Example 16] | - | 
